From US20230097700A1, “AZETIDINE SULFONAMIDE COMPOUND” (DAIICHI SANKYO COMPANY, LIMITED, priority 2019, published 2023)
Structures can show the parent of a compound that is named as a salt.

System: activated T cells (CD4+ T cells derived from the mouse spleen)
Test: Incorporation of 3H-thymidine into activated T cells
Format: cell-based, mouse (C57BL/6J)
Settings: 3H-thymidine incorporation, mouse spleen CD4+ T cells activated with Dynabeads Mouse T-Activator CD3/CD28
Method: Effect of a test substance on incorporation of ^3H-thymidine was evaluated using T cells derived from the mouse spleen. The spleen was excised out from a C57BL/6J mouse euthanized, cut into pieces, ground on a cell strainer (40 μm mesh) and centrifuged to collect spleen cells. CD4+ T cells were isolated from the spleen cells by use of EasySep Mouse CD4+ T cell isolation kit (STEMCELL Technologies). CD4+ T cells were seeded to a 96-well round-bottom plate. Test substance dissolved in DMSO (dimethyl sulfoxide) or vehicle (DMSO) was added to culture medium and Dynabeads Mouse T-Activator CD3/CD28 (Thermo Fisher Scientific Inc.) was added. Culture was carried out at 37° C. in 5% CO2. After culture was carried out for 24 hours, ^3H-thymidine (PerkinElmer) diluted with the culture medium was added to individual wells. Culture was further carried out overnight at 37° C. in 5% CO2. In order to measure ^3H-thymidine incorporated in nuclei of the cells, the cells were collected on a filter plate UniFilter-96 GF/B (PerkinElmer) by use of a FilterMate Universal Harvester (PerkinElmer). After the filter plate was placed in a dryer and allowed to stand still for 2 hours or more, scintillation cocktail MicroScint-O (PerkinElmer) was added and radioactivity was measured by TopCount NXT (PerkinElmer). With the radioactivity of a group not containing a test substance being specified as 100% and the radioactivity of a group not activated being specified as 0%, relative radioactivity values of individual wells to which the test substance was added (proliferation rate, % of vehicle) were calculated. The values of “% of vehicle” were entered in analysis software Prism (Version 4.03, GraphPad Software). “Nonlinear regression Log (inhibitor) vs reaction variable tilt” was selected and sigmoid type-fitting (Bottom=0, Top=100) was carried out to calculate 50% inhibition concentration (IC50). The compound of the present invention suppresses ^3H-thymidine incorporation in activated T cells.

## N[C@@H](Cc1cccc(S(=O)(=O)N2CC(Oc3ccc(F)cc3)(c3ccc(F)c(F)c3)C2)c1)C(=O)O [Example 37, (2S)-2-Amino-3-{3-[3-(3,4-difluorophenyl)-3-(4-fluorophenoxy)azetidin-1-sulfonyl]phenyl}propanoic acid monohydrochloride]
  IC50: 24 nM

## N#Cc1ccc(OC2(c3ccc(F)c(F)c3)CN(S(=O)(=O)c3cccc(C[C@H](N)C(=O)O)c3)C2)cc1 [Example 38, (2S)-2-Amino-3-{3-[3-(4-cyanophenoxy)-3-(3,4-difluorophenyl)azetidin-1-sulfonyl]phenyl}propanoic acid monohydrochloride]
  IC50: 17 nM

## NC(=O)c1ccc(OC2(c3ccc(F)c(F)c3)CN(S(=O)(=O)c3cccc(C[C@H](N)C(=O)O)c3)C2)cc1 [Example 39, (2S)-2-Amino-3-{3-[3-(4-carbamoylphenoxy)-3-(3,4-difluorophenyl)azetidin-1-sulfonyl]phenyl}propanoic acid monohydrochloride]
  IC50: 14 nM

## Cc1cccc(OC2(c3ccccc3)CN(S(=O)(=O)c3cccc(C[C@H](N)C(=O)O)c3)C2)c1 [Example 43, (2S)-2-Amino-3-(3-{[3-(3-methylphenoxy)-3-phenylazetidin-1-yl]sulfonyl}phenyl)propanoic acid monohydrochloride]
  IC50: 18 nM

## Cc1ccc(OC2(c3ccccc3)CN(S(=O)(=O)c3cccc(C[C@H](N)C(=O)O)c3)C2)cc1F [Example 45, (2S)-2-Amino-3-(3-{[3-(3-fluoro-4-methylphenoxy)-3-phenylazetidin-1-yl]sulfonyl}phenyl)propanoic acid monoformate]
  IC50: 23 nM

## Cc1ccc(OC2(c3ccc(F)cc3)CN(S(=O)(=O)c3cccc(C[C@H](N)C(=O)O)c3)C2)cn1 [Example 46, (2S)-2-Amino-3-[3-({3-(4-fluorophenyl)-3-[(6-methylpyridin-3-yl)oxy]azetidin-1-yl}sulfonyl)phenyl]propanoic acid dihydrochloride]
  IC50: 31 nM

## N[C@@H](Cc1cccc(S(=O)(=O)N2CC(Oc3ccc(F)cc3)(c3ccc(F)cn3)C2)c1)C(=O)O [Example 47, (2S)-2-Amino-3-(3-{[3-(4-fluorophenoxy)-3-(5-fluoropyridin-2-yl)azetidin-1-yl]sulfonyl}phenyl)propanoic acid dihydrochloride]
  IC50: 34 nM

## CCc1ccc(OC2(c3ccc(F)cc3)CN(S(=O)(=O)c3cccc(C[C@H](N)C(=O)O)c3)C2)cn1 [Example 48, (2S)-2-Amino-3-[3-({3-[(6-ethylpyridin-3-yl)oxy]-3-(4-fluorophenyl)azetidin-1-yl}-sulfonyl)phenyl]propanoic acid dihydrochloride]
  IC50: 22 nM

## Cc1ncc(OC2(c3ccc(F)cc3)CN(S(=O)(=O)c3cccc(C[C@H](N)C(=O)O)c3)C2)cc1F [Example 49, (2S)-2-Amino-3-[3-({3-[(5-fluoro-6-methylpyridin-3-yl)oxy]-3-(4-fluorophenyl)azetidin-1-yl}sulfonyl)phenyl]propanoic acid dihydrochloride]
  IC50: 36 nM

## Cc1ccc(OC2(c3ccc(F)cn3)CN(S(=O)(=O)c3cccc(C[C@H](N)C(=O)O)c3)C2)cc1 [Example 50, (2S)-2-Amino-3-(3-{[3-(5-fluoropyridin-2-yl)-3-(4-methylphenoxy)azetidin-1-yl]sulfonyl}phenyl)propanoic acid dihydrochloride]
  IC50: 24 nM

## N[C@@H](Cc1cccc(S(=O)(=O)N2CC(Oc3ccc(B(O)O)cc3)(c3ccccc3)C2)c1)C(=O)O [Example 52, (2S)-2-Amino-3-(3-{[3-(4-boronophenoxy)-3-phenylazetidin-1-yl]sulfonyl}phenyl)propanoic acid monoformate]
  IC50: 6.6 nM

## N[C@@H](Cc1cccc(S(=O)(=O)N2CC(Oc3ccc(Cl)cc3)(c3ccc(Cl)cc3)C2)c1)C(=O)O [Example 53, (2S)-2-Amino-3-(3-{[3-(4-chlorophenoxy)-3-(4-chlorophenyl)azetidin-1-yl]sulfonyl}phenyl)propanoic acid monoformate]
  IC50: 8.7 nM

## N[C@@H](Cc1cccc(S(=O)(=O)N2CC(Oc3ccc(F)cc3)(c3ccc(Cl)cc3)C2)c1)C(=O)O [Example 54, (2S)-2-Amino-3-(3-{[3-(4-chlorophenyl)-3-(4-fluorophenoxy)azetidin-1-yl]sulfonyl}phenyl)propanoic acid monoformate]
  IC50: 4.8 nM

## N[C@@H](Cc1cccc(S(=O)(=O)N2CC(Oc3cccc(F)c3)(c3ccc(Cl)cc3)C2)c1)C(=O)O [Example 55, (2S)-2-Amino-3-(3-{[3-(4-chlorophenyl)-3-(3-fluorophenoxy)azetidin-1-yl]sulfonyl}phenyl)propanoic acid monoformate]
  IC50: 7.8 nM

## CCn1cc(OC2(c3ccc(F)cc3)CN(S(=O)(=O)c3cccc(C[C@H](N)C(=O)O)c3)C2)cn1 [Example 56, (2S)-2-Amino-3-[3-({3-[(1-ethyl-1H-pyrazol-4-yl)oxy]-3-(4-fluorophenyl)azetidin-1-yl)sulfonyl)phenyl]propanoic acid dihydrochloride]
  IC50: 240 nM

## COc1ccc(OC2(c3ccc(F)cc3)CN(S(=O)(=O)c3cccc(C[C@H](N)C(=O)O)c3)C2)cn1 [Example 57, (2S)-2-Amino-3-[3-({3-(4-fluorophenyl)-3-[(6-methoxypyridin-3-yl)oxy]azetidin-1-yl}sulfonyl)phenyl]propanoic acid monoformate]
  IC50: 16 nM

## N[C@@H](Cc1cccc(S(=O)(=O)N2CC(Oc3ccc4c(c3)COB4O)(c3ccc(F)cc3)C2)c1)C(=O)O [Example 58, (2S)-2-Amino-3-[3-({3-(4-fluorophenyl)-3-[(1-hydroxy-1,3-dihydro-2,1-benzoxaborol-5-yl)oxy]azetidin-1-yl)sulfonyl)phenyl]propanoic acid monoformate]
  IC50: 16 nM

## Cc1ccc(C2(Oc3cccc(F)c3)CN(S(=O)(=O)c3cccc(C[C@H](N)C(=O)O)c3)C2)cc1 [Example 59, (2S)-2-Amino-3-(3-{[3-(3-fluorophenoxy)-3-(4-methylphenyl)azetidin-1-yl]sulfonyl}phenyl)propanoic acid monoformate]
  IC50: 18 nM

## CC(=O)c1ccc(OC2(c3ccc(F)cn3)CN(S(=O)(=O)c3cccc(C[C@H](N)C(=O)O)c3)C2)cc1 [Example 60, (2S)-3-(3-{[3-(4-acetylphenoxy)-3-(5-fluoropyridin-2-yl)azetidin-1-yl]sulfonyl}phenyl)-2-aminopropanoic acid dihydrochloride]
  IC50: 14 nM

## NC(=O)c1ccc(OC2(c3ccc(Cl)cc3)CN(S(=O)(=O)c3cccc(C[C@H](N)C(=O)O)c3)C2)cc1 [Example 61, (2S)-2-Amino-3-(3-{[3-(4-carbamoylphenoxy)-3-(4-chlorophenyl)azetidin-1-yl]sulfonyl}phenyl)propanoic acid monohydrochloride]
  IC50: 9.9 nM

## NC(=O)c1ccc(OC2(c3ccc(F)cc3)CN(S(=O)(=O)c3cccc(C[C@H](N)C(=O)O)c3)C2)cn1 [Example 86a, dihydrochloride]
  IC50: 23 nM

## N#Cc1ccc(OC2(c3ccc(F)cc3)CN(S(=O)(=O)c3cccc(C[C@H](N)C(=O)O)c3)C2)cn1 [Example 86b, monoformate]
  IC50: 17 nM

## N[C@@H](Cc1cccc(S(=O)(=O)N2CC(Oc3ccc(Cl)cc3)(c3ccccc3)C2)c1)C(=O)O [Example 87]
  IC50: 19 nM

## N[C@@H](Cc1cccc(S(=O)(=O)N2CC(Oc3ccccc3)(c3ccccc3)C2)c1)C(=O)O [Example 88, (2S)-2-Amino-3-(3-{[3-(3-phenoxy)-3-phenylazetidin-1-yl]sulfonyl}phenyl)propanoic acid]
  IC50: 15 nM

## N[C@@H](Cc1cccc(S(=O)(=O)N2CC(Oc3ccc4[nH]ncc4c3)(c3ccccc3)C2)c1)C(=O)O [Example 90, (2S)-2-Amino-3-(3-{3-[(1H-indazol-5-yl)oxy]-3-phenylazetidin-1-sulfonyl}phenyl)propanoic acid]
  IC50: 3.4 nM
